Test results from ChEMBL document CHEMBL5154945, “Discovery and Optimization of Pyrrolopyrimidine Derivatives as Selective Disruptors of the Perinucleolar Compartment, a Marker of Tumor Progression toward Metastasis” (J Med Chem, 2022).

Tested on: PC-3M
Test: Inhibition of cell migration at human PC-3M cells measured after 5 days by Hoechst 33342 staining based microscopic method
Assay type: functional
Settings: 120 h

O=C(Nc1cccnc1)c1cccs1
AC50: 1980 nM
